Experimental findings from US9981969B2, “Imidazole derivatives and methods of use thereof for improving the pharmacokinetics of a drug” (MERCK SHARP & DOHME CORP., priority 2013, dated 2018) are described below.

The term IC50 denotes the concentration that inhibits the measured activity by half. Higher therefore signals weaker potency in that assay.

One assay deals with T1, CYP1A2 (Homo sapiens, UniProt P05177).
T1 construct: 0.1 mg/mL protein human liver microsomes (BD Gentest); tissue BD Gentest; host or cells: human liver microsomes
T1 sequence (P05177 1-516): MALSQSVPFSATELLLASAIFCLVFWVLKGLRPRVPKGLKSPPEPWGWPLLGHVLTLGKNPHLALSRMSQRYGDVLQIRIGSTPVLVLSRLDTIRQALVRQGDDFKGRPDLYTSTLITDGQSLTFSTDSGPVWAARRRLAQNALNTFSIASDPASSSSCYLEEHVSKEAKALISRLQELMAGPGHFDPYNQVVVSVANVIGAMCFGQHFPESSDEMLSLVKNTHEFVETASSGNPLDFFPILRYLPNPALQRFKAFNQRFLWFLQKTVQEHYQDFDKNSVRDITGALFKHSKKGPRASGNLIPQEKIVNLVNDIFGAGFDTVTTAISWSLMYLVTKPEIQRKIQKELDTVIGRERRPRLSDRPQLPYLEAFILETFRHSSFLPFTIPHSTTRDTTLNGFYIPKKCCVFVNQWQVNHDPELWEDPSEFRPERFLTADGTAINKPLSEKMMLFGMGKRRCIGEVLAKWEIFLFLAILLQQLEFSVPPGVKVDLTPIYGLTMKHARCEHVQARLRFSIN
Nature of the assay: Cocktail assay for CYPs in human liver microsomes, phenacetin O-deethylation (1A2). Format: biochemical. To be noted: 10 μM phenacetin, 10 min at 37° C. Here is the method: (§1) This assay was performed in a standard 96-well plate design. IC50 values were calculated from the percent inhibition observed for each test compound at 6 concentrations (for example, 0.0032, 0.016, 0.08, 0.4, 2 and 10 μM). The incubation substrate mix contains 10 μM phenacetin (1A2), 5 μM diclofenac (2C9), 30 μM mephenytoin (2C19), 5 μM dextromethorphan (2D6) and 2 μM midazolam (3A4), 0.1 mg/mL protein human liver microsomes (BD Gentest), 1 mM NAPDH, 3.3 mM MgCl2 and 100 mM potassium phosphate buffer (pH 7.4). The production of the metabolite of each probe substrate was determined after incubation for 10 min at 37° C. Quantitation of the metabolite peak area ratio against an internal standard (tolbutamide) was determined by LC/MS/MS analysis following acetonitrile treatment of the incubations.
(§2) Samples were analyzed in the MRM mode with a SCIEX API-4000 mass spectrometer (Applied Biosystems, Foster City, Calif.), with a Shimadzu LC-20 AD pump (Shimadzu corporation, Kyoto, JP) and a CTC PAL autosampler (Agilent Technologies, Switzerland). A Phenomenex, Luna, 5 μm, 100A, 2.00×30 mm HPLC column was used for the separation. The mobile phases were: (A) 0.1% formic acid in water and (B) 0.1% formic acid in acetonitrile. The binary gradient was as follows. AutoSampler: CTC PAL
(§3) The peak area ratio of the analyte to the internal standard was used to quantify the metabolite. The values of peak area ratios in the presence of test compound were compared to those of maximum or minimum controls and were expressed as % inhibition by interpolating between the maximum and minimum peak area ratios. Incubations with no inhibitor were defined as the maxima. The following equation was used to calculate the % inhibition: [1−[(X−Low control)/(High control−Low control)]]*100 For the IC50 calculation, SigmaPlot was used to plot the mean % inhibition versus the test compound concentrations and for non-linear regression analysis of the data. Depending on the range of data points defining the inhibition curve, the data may have been fit to the 4-parameter logistic equation.

The next assay concerns the target T2, human CYP11B2 (Homo sapiens, UniProt P19099).
T2 construct: expressed in transfected cells
T2 sequence (P19099 25-503): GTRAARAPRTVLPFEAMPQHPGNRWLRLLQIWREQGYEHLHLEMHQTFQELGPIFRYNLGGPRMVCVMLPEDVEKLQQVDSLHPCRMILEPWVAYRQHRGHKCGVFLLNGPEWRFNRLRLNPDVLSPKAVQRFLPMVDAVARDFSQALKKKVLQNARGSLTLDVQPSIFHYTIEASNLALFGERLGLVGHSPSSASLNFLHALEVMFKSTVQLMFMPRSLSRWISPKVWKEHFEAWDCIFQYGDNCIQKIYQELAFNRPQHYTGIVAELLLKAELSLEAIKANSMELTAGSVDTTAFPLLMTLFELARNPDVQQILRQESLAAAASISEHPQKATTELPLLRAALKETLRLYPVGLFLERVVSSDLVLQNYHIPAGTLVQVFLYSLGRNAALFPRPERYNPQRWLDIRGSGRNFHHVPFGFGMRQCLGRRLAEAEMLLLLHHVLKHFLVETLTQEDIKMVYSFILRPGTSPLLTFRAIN
Description: IC50 vs CYP11B2 by measurement of aldosterone synthesis in V79 cells. Format: cell-based. To be noted: V79 cells expressing human CYP11B2, 750 nM DOC, aldosterone HTRF. How it is done:
(§4) This assay was performed in a standard 384-well plate design using cultured V79 cells stably expressing human CYP11B1 or human CYP11B2. Test compounds at 10 concentrations (for example, 10000, 3333.3, 1111.1, 370.4, 123.5, 41.2, 13.7, 4.6, 1.5 and 0.5 nM) were added in 384-well plate after the cell-seeding procedure. The incubation substrate contains 1500 nM RSS for CYP11B1 assay/750 nM DOC for CYP11B2 assay. The Cortisol/Aldosterone production of cell culture supernatant was determined by Cortisol/Aldosterone HTRF kit after for about 15 hours incubation at RT (protect from light). IC50 (nM) values were calculated from the percent inhibition observed for each test compound at 10 concentrations.
(§5) The assay plate was read using Envision (Perkin Elmer, Waltham, Mass.) at 665 nm and 590 nm (using Filter Barcode of 217#, 205#; Mirror Barcode of 446#).
(§6) Data are analyzed using Assay Data Analyzer. All ratio data (665 nm/590 nm) are back calculated according to the standard curve, resulting in Cortisol/Aldosterone concentrations. IC50 (nM) values are reported as the Inflection Point (IP) of a four parameter fit of the titration data.
(§7) The following equation was used to calculate the % inhibition: % Activity=100×{1−(Sample_back calculated Cortisol/Aldosterone concentration−LC_back calculated Cortisol/Aldosterone concentration)/(HC_back calculated Cortisol/Aldosterone concentration−LC_back calculated Cortisol/Aldosterone concentration)} Curve Fitting: Four Parameter Logistic: […]
For orientation: Time-resolved FRET reads energy transfer from a long-lived donor to a nearby acceptor.

A further assay deals with T3, CYP3A4 (Homo sapiens, UniProt P08684).
T3 construct: 0.1 mg/mL protein human liver microsomes (BD Gentest); tissue BD Gentest; host or cells: human liver microsomes
Description: Cocktail assay for CYPs in human liver microsomes, midazolam 1′-hydroxylation (3A4). Format: biochemical. To be noted: 2 μM midazolam, 10 min at 37° C. How it is done: as §1, §2, §3
(Microsomes from liver hold many membrane-bound enzymes, among them those of drug oxidation.)

The target in a further assay is T4, CYP2C9 (Homo sapiens, UniProt P11712).
T4 construct: 0.1 mg/mL protein human liver microsomes (BD Gentest); tissue BD Gentest; host or cells: human liver microsomes
Description: Cocktail assay for CYPs in human liver microsomes, diclofenac 4′-hydroxylation (2C9). Format: biochemical. To be noted: 5 μM diclofenac, 10 min at 37° C. Here is the method:
as §1, §2, §3

Another assay has as its target T5, CYP2D6 (Homo sapiens, UniProt P10635).
T5 construct: 0.1 mg/mL protein human liver microsomes (BD Gentest); tissue BD Gentest; host or cells: human liver microsomes
Nature of the assay: Cocktail assay for CYPs in human liver microsomes, dextromethorphan O-demethylation (2D6). The format is biochemical. To be noted: 5 μM dextromethorphan, 10 min at 37° C. How it is done:
as §1, §2, §3

The target in the next assay is T6, CYP2C19 (Homo sapiens, UniProt P33261).
T6 construct: 0.1 mg/mL protein human liver microsomes (BD Gentest); tissue BD Gentest; host or cells: human liver microsomes
Description: Cocktail assay for CYPs in human liver microsomes, mephenytoin 4′-hydroxylation (2C19). Format: biochemical. To be noted: 30 μM mephenytoin, 10 min at 37° C. Here is the method:
as §1, §2, §3

The next assay concerns the target T7, human CYP11B1 (Homo sapiens, UniProt P15538).
T7 construct: expressed in transfected cells
T7 sequence (P15538 25-503): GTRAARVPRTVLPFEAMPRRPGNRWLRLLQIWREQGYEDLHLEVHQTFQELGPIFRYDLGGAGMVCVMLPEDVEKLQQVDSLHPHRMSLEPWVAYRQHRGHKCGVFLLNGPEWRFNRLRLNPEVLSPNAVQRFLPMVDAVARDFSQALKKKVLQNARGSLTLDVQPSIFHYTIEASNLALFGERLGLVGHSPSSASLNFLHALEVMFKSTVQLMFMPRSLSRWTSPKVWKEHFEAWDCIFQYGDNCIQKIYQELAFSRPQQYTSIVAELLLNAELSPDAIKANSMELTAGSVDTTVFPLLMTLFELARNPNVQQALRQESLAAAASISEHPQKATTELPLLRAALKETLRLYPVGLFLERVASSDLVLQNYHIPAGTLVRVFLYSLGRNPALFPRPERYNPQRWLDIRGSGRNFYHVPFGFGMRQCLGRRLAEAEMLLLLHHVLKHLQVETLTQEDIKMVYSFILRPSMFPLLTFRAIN
Nature of the assay: IC50 vs CYP11B1 by measurement of cortisol synthesis in V79 cells. To be noted: V79 cells expressing human CYP11B1, 1500 nM RSS, cortisol HTRF. Format: cell-based. How it is done:
as §4, §5, §6, §7

T4 sequence (P11712 whole entry): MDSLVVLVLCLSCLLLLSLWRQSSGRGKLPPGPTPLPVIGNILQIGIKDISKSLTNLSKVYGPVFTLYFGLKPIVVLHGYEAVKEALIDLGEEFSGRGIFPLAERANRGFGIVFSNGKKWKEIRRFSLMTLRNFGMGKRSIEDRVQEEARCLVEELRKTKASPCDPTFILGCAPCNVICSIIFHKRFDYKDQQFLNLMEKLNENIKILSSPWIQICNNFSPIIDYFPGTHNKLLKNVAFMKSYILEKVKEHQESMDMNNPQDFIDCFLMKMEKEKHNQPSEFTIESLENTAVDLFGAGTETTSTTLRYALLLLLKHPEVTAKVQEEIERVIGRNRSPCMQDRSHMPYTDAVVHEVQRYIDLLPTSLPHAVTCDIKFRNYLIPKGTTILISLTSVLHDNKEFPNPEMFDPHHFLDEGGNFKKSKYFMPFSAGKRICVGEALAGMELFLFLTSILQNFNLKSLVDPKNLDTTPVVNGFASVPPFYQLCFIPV
T6 sequence (P33261 whole entry): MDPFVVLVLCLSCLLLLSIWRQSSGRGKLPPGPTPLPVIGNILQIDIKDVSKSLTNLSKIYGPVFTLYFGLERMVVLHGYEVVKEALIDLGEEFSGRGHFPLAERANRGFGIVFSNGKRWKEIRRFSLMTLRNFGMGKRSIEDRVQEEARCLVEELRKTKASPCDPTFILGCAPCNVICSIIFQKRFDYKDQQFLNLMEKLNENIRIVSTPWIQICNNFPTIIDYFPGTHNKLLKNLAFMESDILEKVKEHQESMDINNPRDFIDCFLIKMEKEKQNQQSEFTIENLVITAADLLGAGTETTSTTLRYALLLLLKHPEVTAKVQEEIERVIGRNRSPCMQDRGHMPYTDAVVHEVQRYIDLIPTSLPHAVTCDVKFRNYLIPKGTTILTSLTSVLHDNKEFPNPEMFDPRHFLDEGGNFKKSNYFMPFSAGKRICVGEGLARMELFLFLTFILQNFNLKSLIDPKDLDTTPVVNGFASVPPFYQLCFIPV
T5 sequence (P10635 whole entry): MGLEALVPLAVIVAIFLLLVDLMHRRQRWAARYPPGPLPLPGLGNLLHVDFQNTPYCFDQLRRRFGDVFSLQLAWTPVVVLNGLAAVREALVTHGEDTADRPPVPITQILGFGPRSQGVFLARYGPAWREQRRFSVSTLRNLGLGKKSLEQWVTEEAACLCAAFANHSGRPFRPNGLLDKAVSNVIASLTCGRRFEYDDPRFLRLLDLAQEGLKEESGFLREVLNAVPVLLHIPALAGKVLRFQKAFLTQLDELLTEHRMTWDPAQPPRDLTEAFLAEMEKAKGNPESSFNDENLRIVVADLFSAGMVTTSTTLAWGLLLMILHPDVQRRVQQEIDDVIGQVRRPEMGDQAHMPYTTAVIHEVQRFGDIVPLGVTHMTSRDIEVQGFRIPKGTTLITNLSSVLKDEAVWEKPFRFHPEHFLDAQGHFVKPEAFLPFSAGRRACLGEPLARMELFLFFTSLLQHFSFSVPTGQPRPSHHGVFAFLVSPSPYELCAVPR
T3 sequence (P08684 whole entry): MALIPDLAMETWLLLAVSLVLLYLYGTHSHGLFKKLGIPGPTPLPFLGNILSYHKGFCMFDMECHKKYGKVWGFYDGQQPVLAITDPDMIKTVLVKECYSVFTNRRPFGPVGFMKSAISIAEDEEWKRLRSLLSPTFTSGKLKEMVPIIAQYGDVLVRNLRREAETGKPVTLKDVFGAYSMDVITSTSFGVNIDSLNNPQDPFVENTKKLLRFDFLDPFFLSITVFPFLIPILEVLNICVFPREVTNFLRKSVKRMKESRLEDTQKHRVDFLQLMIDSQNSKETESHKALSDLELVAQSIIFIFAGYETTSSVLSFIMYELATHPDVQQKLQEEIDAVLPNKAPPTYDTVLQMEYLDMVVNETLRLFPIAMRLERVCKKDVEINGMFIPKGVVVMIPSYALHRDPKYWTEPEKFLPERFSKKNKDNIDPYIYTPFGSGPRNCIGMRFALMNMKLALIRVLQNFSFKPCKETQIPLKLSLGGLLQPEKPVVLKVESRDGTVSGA

Take `CO[C@H]1CN(C2CCN(C(=O)c3cncn3[C@@H](C)c3ccccc3-c3ccc(F)cc3)CC2)CC[C@@H]1O` [Compound 10]: the half-inhibitory concentration (IC50) at CYP1A2 was over 10 µM; against human CYP11B2, over 50 µM; against CYP3A4, 5 nM; against CYP2C9, over 10 µM; against CYP2D6, 5.91 µM; at CYP2C19, over 10 µM. The compound also returned an IC50 at human CYP11B1 of over 50 µM.

Turning to `CO[C@H]1CN(C2CCN(C(=O)c3cncn3[C@@H](C)c3ccccc3-c3ccc(F)cc3)CC2)CC[C@H]1O` [Compound 11], the IC50 against CYP1A2 is over 10 µM; against human CYP11B2, over 50 µM; against CYP3A4, 6 nM; against CYP2C9, over 10 µM; against CYP2D6, 7.06 µM; at CYP2C19 it was over 10 µM. This compound also yielded an IC50 against human CYP11B1 of 26.7 µM.

Consider `CO[C@@H]1CN(C2CCN(C(=O)c3cncn3[C@@H](C)c3ccccc3-c3ccc(F)cc3)CC2)CC[C@@H]1O` [Compound 12], for which the 50% inhibitory concentration (IC50) on CYP1A2 is over 10 µM; at human CYP11B2, over 50 µM; against CYP3A4, 6.2 nM; on CYP2C9, over 10 µM; against CYP2D6, 5.08 µM; on CYP2C19, over 10 µM. At human CYP11B1, this compound gave an IC50 of 41.9 µM.

With `C[C@@H](c1ccccc1-c1ccc(F)cc1)n1cncc1C(=O)N1CCC(N2CC[C@H](O)[C@@H](F)C2)CC1` [Compound 13], the IC50 on CYP1A2 is over 10 µM; against human CYP11B2, over 50 µM; against CYP3A4, 5.3 nM; on CYP2C9, over 10 µM; against CYP2D6, over 10 µM; at CYP2C19, over 10 µM. The compound further yielded an IC50 against human CYP11B1 of 22.8 µM.

Turning to `C[C@@H](c1ccccc1-c1ccc(F)cc1)n1cncc1C(=O)N1CCC(N2CC[C@@H](O)[C@H](F)C2)CC1` [Compound 14], the IC50 at CYP1A2 was over 10 µM; against human CYP11B2 it was over 50 µM; against CYP3A4, 6.1 nM; against CYP2C9 it was over 10 µM; on CYP2D6, over 10 µM; against CYP2C19, over 10 µM. In addition, the midpoint of inhibition at human CYP11B1, the IC50, lay at 22 µM.

On to `C[C@@H](c1ccccc1-c1ccc(F)cc1)n1cncc1C(=O)N1CCC(N2C[C@@H](O)[C@H](F)C2)CC1` [Compound 15], for which the IC50 is over 10 µM at CYP1A2; over 50 µM against human CYP11B2; 4.1 nM against CYP3A4; over 10 µM against CYP2C9; over 10 µM at CYP2D6; over 10 µM at CYP2C19. The same compound returned an IC50 on human CYP11B1 of 20.2 µM.

Regarding `C[C@@H](c1ccccc1-c1ccc(F)cc1)n1cncc1C(=O)N1CCC(N2C[C@H](O)[C@@H](F)C2)CC1` [Compound 16], the IC50 on CYP1A2 is over 10 µM; at human CYP11B2, 24.3 µM; at CYP3A4, 4.3 nM; on CYP2C9 it was over 10 µM; at CYP2D6, over 10 µM; against CYP2C19, over 10 µM. The compound further registered an IC50 against human CYP11B1 of 10.2 µM.

Consider `C[C@@H]1CN(C2CCN(C(=O)c3cncn3[C@@H](C)c3ccccc3-c3ccc(F)cc3)CC2)CC[C@@H]1O` [Compound 17], for which the IC50 was over 10 µM against CYP1A2; 31.6 µM at human CYP11B2; 4.9 nM on CYP3A4; over 10 µM against CYP2C9; 8.6 µM against CYP2D6; over 10 µM on CYP2C19. The IC50 against human CYP11B1 is 11.5 µM.

With `C[C@@H]1CN(C2CCN(C(=O)c3cncn3[C@@H](C)c3ccccc3-c3ccc(F)cc3)CC2)CC[C@H]1O` [Compound 18], the IC50 is over 10 µM against CYP1A2; over 50 µM at human CYP11B2; 9.7 nM on CYP3A4; over 10 µM at CYP2C9; over 10 µM at CYP2D6; over 10 µM at CYP2C19. The same compound showed an IC50 against human CYP11B1 of over 50 µM.

Turning to `C[C@@H](c1ccccc1-c1ccc(F)cc1)n1cncc1C(=O)N1CCC(N2CCC(F)C(O)C2)CC1` (stereo partly shown) [Compound 19], the IC50 at CYP1A2 is over 10 µM; against human CYP11B2 it was over 50 µM; against CYP3A4 it was 5.7 nM; against CYP2C9, over 10 µM; at CYP2D6 it was over 10 µM; at CYP2C19 it was over 10 µM. At human CYP11B1, this compound gave an IC50 of 32.5 µM.
